Experimental data as given in patent publication US20260083708A1, “IL-17 MODULATORS AND USES THEREOF” (NNOCARE PHARMA INC., priority 2024, published 2026).

How the values were obtained:
IL-17AA and IL-17RA = target: T1, IL-17AA and IL-17RA (Homo sapiens, UniProt Q16552); test: Competitive inhibition of human IL-17AA and IL-17RA binding (HTRF); conditions: recombinant IL-17AA (His-tag) and IL-17RA (hFc-tag); read-out: IC50 for Inhibiting IL-AA/IL-RA Binding
T1 construct: purchased Sino Biological 12047-H07B (IL-17AA); 10895-H02H (IL-17RA)
T1 sequence (Q16552 24-155): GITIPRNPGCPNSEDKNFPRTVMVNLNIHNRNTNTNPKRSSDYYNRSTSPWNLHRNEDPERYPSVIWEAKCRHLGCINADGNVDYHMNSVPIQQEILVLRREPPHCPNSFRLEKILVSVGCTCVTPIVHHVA
Procedure: Example 42. Competitive Inhibition of Human IL-17AA and IL-17RA Binding
Recombinant IL-17AA (His-tag, Catalog Number 12047-H07B) and IL-17RA (hFc-tag, Catalog Number 10895-H02H) were purchased from Sino Biological. In the experiment, 10 μL of IL-17AA (1 nM) or IL-17RA (1 nM) was added to 10 μL of anti-6His-Tb (0.4 nM, Revvity, Catalog Number 61HISTLF) or anti-human IgG-d2 (1 μg/mL, anti-human IgG-d2, Revvity, Catalog Number 61HFCDAF), respectively and incubated at room temperature for 1 hour. Compounds were serially diluted starting from 10 μM. 5 μL of each compound solution was incubated with 5 μL of a mixture of IL-17AA and anti-6His-Tb at room temperature for 2 hours. After pre-incubation, to which was added 10 μL of a mixture of IL-17RA and anti-human IgG-d2, and incubation was continued for additional 20 minutes. Subsequently, a microplate reader (Envision, PerkinElmer) was used to detect fluorescence intensity at 615 nm and 665 nm, and the ratio of intensity thereof indicates the degree of IL-17AA and IL-17RA interaction. The ratio of intensity in the absence of tested compound was the highest value of binding between IL-17AA and IL-17RA, and the ratio of intensity in the absence of IL-17AA was the lowest value.
(§1) Therefore, the percentage of inhibition of tested compound was calculated as
Experimental results were analyzed using XLfit (IDBS) for 4-parameter nonlinear fitting analysis, to provide the IC50 value for each tested compound (Table 1).

[1] = system: IL-17AA-induced IL-17 signaling pathway; test: Inhibition of IL-17AA-induced IL-17 signaling pathway in HEK-Blue IL-17 reporter cells (SEAP); format: cell-based; conditions: Homo sapiens; HEK-Blue IL-17 cells, IL-17AA 2.5 ng/mL, 20 hours; read-out: IC50 for Inhibiting IL-AA Signaling
Text: Example 43. Inhibition of IL-17AA-Induced IL-17 Signaling Pathway
(§2) Interleukin-17 (IL-17) reporter cell line (HEK-Blue IL-17, InvivoGen, Catalog Number hkb-i117) is created by genetically engineering human IL-17RA/IL-17RC heterodimeric receptor and downstream adapter protein ACT1 into human embryonic kidney 293 cells (HEK293). These cells also express secreted embryonic alkaline phosphatase (SEAP) reporter gene induced by NF-κB and AP-1. Therefore, IL-17AA can activate NF-κB and AP-1 signaling pathways inside the cells by binding to IL-17RA/RC on cell membrane, leading to expression of SEAP protein. After a colorimetric reaction between SEAP protein and Quanti-Blue solution, the absorbance at 620 nm is measured using a microplate reader (BioTek H1M, Agilent, Catalog Number SH1M-SN) to determine IL-17AA-activated signaling pathway.
(§3) In the experiment, HEK-Blue IL-17 cells were cultured at 37° C. under 5% CO2 conditions using the recommended medium from InvivoGen's instruction. Compounds were serially diluted starting from 10 μM. 4 μL of each compound solution was added to 32 μL of cells (10,000 cells) at 37° C. for 1 hour. After pre-incubation, 4 μL of IL-17AA with a final concentration of 2.5 ng/mL (Sino Biological, Catalog Number 12047-HNAS) was added to the cells, and incubation was continued for additional 20 hours. After incubation, 5 μL of cell culture supernatant was added to 45 μL of Quanti-Blue for the colorimetric reaction. The group without tested compound had the highest absorbance at 620 nm, and the group without IL-17AA had the lowest absorbance at 620 nm.
as §1
(§4) Experimental results were analyzed using XLfit (IDBS) for 4-parameter nonlinear fitting analysis to provide the IC50 value for each tested compound (Table 1).

[2] = system: IL-17AF-induced IL-17 signaling pathway; test: Inhibition of IL-17AF-induced IL-17 signaling pathway; format: cell-based; conditions: Homo sapiens; IL-17AF used instead of IL-17AA; read-out: IC50 for Inhibiting IL-AF Signaling
Text: as §2, §3, §1, §4
Example 44. Inhibition of IL-17AF-Induced IL-17 Signaling Pathway
The same experimental procedure to Example […] was followed where IL-17AF was used instead of IL-17AA.

SMILES | IC50 (IL-17AA and IL-17RA) [nM] | IC50 [1] [nM] | IC50 [2] [nM]
CCCn1cnc([C@H](NC(=O)COC)[C@@H](C)c2ccc(NC(=O)[C@@H](NC(=O)c3ccnn3CC)C(C3CC3)C3CC3)c(F)c2)n1 [Compound 30, N-((S)-1,1-dicyclopropyl-3-((2-fluoro-4-((1R,2S)-1-(2-methoxyacetamido)-1-(1-propyl-1H-1,2,4-triazol-3-yl)propan-2-yl)phenyl)amino)-3-oxopropan-2-yl)-1-ethyl-1H-pyrazole-5-carboxamide] | 23 | 32 | 66
CCCn1ncnc1[C@H](NC(=O)COC)[C@@H](C)c1ccc(NC(=O)[C@@H](NC(=O)c2ccnn2CC)C(C2CC2)C2CC2)c(F)c1 [Compound 31, N-((S)-1,1-dicyclopropyl-3-((2-fluoro-4-((1R,2S)-1-(2-methoxyacetamido)-1-(1-propyl-1H-1,2,4-triazol-5-yl)propan-2-yl)phenyl)amino)-3-oxopropan-2-yl)-1-ethyl-1H-pyrazole-5-carboxamide] | 11 | 6.9 | 13
COCC(=O)N[C@@H](c1ncnn1CC1CC1)[C@@H](C)c1ccc(NC(=O)[C@@H](NC(=O)c2ccnn2C(C)C)C(C2CC2)C2CC2)c(F)c1 [Compound 33, N-((S)-1,1-dicyclopropyl-3-((4-((1R,2S)-1-(1-(cyclopropylmethyl)-1H-1,2,4-triazol-5-yl)-1-(2-methoxyacetamido)propan-2-yl)-2-fluorophenyl)amino)-3-oxopropan-2-yl)-1-isopropyl-1H-pyrazole-5-carboxamide] | 7.9 | 3.1 | 7.7
CCn1nccc1C(=O)N[C@H](C(=O)Nc1ccc([C@H](C)[C@H](NC(=O)COC)c2nncn2CC2CC2)cc1F)C(C1CC1)C1CC1 [Compound 37, N-((S)-1,1-dicyclopropyl-3-((4-((1S,2S)-1-(4-(cyclopropylmethyl)-4H-1,2,4-triazol-3-yl)-1-(2-methoxyacetamido)propan-2-yl)-2-fluorophenyl)amino)-3-oxopropan-2-yl)-1-ethyl-1H-pyrazole-5-carboxamide] | 125 | 74 | 232
CCn1nccc1C(=O)N[C@H](C(=O)Nc1ccc([C@H](C)[C@@H](NC(=O)COC)c2nccn2CC2CC2)cc1F)C(C1CC1)C1CC1 [Compound 38, N-((S)-1,1-dicyclopropyl-3-((4-((1R,2S)-1-(1-(cyclopropylmethyl)-1H-imidazol-2-yl)-1-(2-methoxyacetamido)propan-2-yl)-2-fluorophenyl)amino)-3-oxopropan-2-yl)-1-ethyl-1H-pyrazole-5-carboxamide] | 7.5 | 2.9 | 7
CCn1nccc1C(=O)N[C@H](C(=O)Nc1ccc([C@H](C)[C@@H](NC(=O)COC)c2ncnn2CCOC)cc1F)C(C1CC1)C1CC1 [Compound 40] | 7.4 | 2.6 | 8.6
CCn1nccc1C(=O)N[C@H](C(=O)Nc1ccc([C@H](C)[C@@H](NC(=O)COC)c2ncnn2CC2CC2)cc1F)C1CCCCCC1 [Compound 42, N-((S)-1-cycloheptyl-2-((4-((1R,2S)-1-(1-(cyclopropylmethyl)-1H-1,2,4-triazol-5-yl)-1-(2-methoxyacetamido)propan-2-yl)-2-fluorophenyl)amino)-2-oxoethyl)-1-ethyl-1H-pyrazole-5-carboxamide] | 4.9 | 5.1 | 11
[2H]C([2H])([2H])n1nccc1C(=O)N[C@H](C(=O)Nc1ccc([C@H](C)[C@@H](NC(=O)CC)c2ncn(CC3CC3)n2)cc1F)C(C1CC1)C1CC1 [Compound 43, N-((S)-1,1-dicyclopropyl-3-((4-((1R,2S)-1-(1-(cyclopropylmethyl)-1H-1,2,4-triazol-3-yl)-1-propionamidopropan-2-yl)-2-fluorophenyl)amino)-3-oxopropan-2-yl)-1-(methyl-d3)-1H-pyrazole-5-carboxamide] | 9.4 | 16 | 27

Results, then the compound that gave them:

IC50 (IL-17AA and IL-17RA) [nM] | IC50 [1] [nM] | IC50 [2] [nM] | SMILES
0.9 | 2 | 3.2 | CCc1nonc1C(=O)N[C@H](C(=O)Nc1ccc([C@H](C)[C@@H](NC(=O)COC)c2nnnn2CC2CC2)cc1F)C(C1CC1)C1CC1 [Compound 29, N-((S)-1,1-dicyclopropyl-3-((4-((1R,2S)-1-(1-(cyclopropylmethyl)-1H-tetrazol-5-yl)-1-(2-methoxyacetamido)propan-2-yl)-2-fluorophenyl)amino)-3-oxopropan-2-yl)-4-ethyl-1,2,5-oxadiazole-3-carboxamide]
2.8 | 5.7 | 8.6 | COCC(=O)N[C@@H](c1nncn1CC1CC1)[C@@H](C)c1ccc(NC(=O)[C@@H](NC(=O)OCc2cc(C(F)F)on2)C(C2CC2)C2CC2)c(F)c1 [Compound 32, (5-(Difluoromethyl)isoxazol-3-yl)methyl ((S)-1,1-dicyclopropyl-3-((4-((1R,2S)-1-(4-(cyclopropylmethyl)-4H-1,2,4-triazol-3-yl)-1-(2-methoxyacetamido)propan-2-yl)-2-fluorophenyl)amino)-3-oxopropan-2-yl)carbamate]
2.6 | 2.2 | 3.2 | CCc1nonc1C(=O)N[C@H](C(=O)Nc1ccc([C@H](C)[C@@H](NC(=O)COC)c2ncnn2CC2CC2)cc1F)C(C1CC1)C1CC1 [Compound 34, N-((S)-1,1-dicyclopropyl-3-((4-((1R,2S)-1-(1-(cyclopropylmethyl)-1H-1,2,4-triazol-5-yl)-1-(2-methoxyacetamido)propan-2-yl)-2-fluorophenyl)amino)-3-oxopropan-2-yl)-4-ethyl-1,2,5-oxadiazole-3-carboxamide]
3.7 | 2 | 2.2 | CCn1nccc1C(=O)N[C@H](C(=O)Nc1ccc([C@H](C)[C@@H](NC(=O)COC)c2ncnn2CC(C)C)cc1F)C(C1CC1)C1CC1 [Compound 36, N-((S)-1,1-dicyclopropyl-3-((2-fluoro-4-((1R,2S)-1-(1-isobutyl-1H-1,2,4-triazol-5-yl)-1-(2-methoxyacetamido)propan-2-yl)phenyl)amino)-3-oxopropan-2-yl)-1-ethyl-1H-pyrazole-5-carboxamide]
4.9 | 11 | 16 | CCn1nccc1C(=O)N[C@H](C(=O)Nc1ccc([C@H](C)[C@@H](NC(=O)COC)c2ncnn2CC2CC2)cc1F)C1CCC(C)CC1 (stereo partly drawn) [Compound 41, N-((S)-2-((4-((1R,2S)-1-(1-(cyclopropylmethyl)-1H-1,2,4-triazol-5-yl)-1-(2-methoxyacetamido)propan-2-yl)-2-fluorophenyl)amino)-1-((1R,4S)-4-methylcyclohexyl)-2-oxoethyl)-1-ethyl-1H-pyrazole-5-carboxamide]
1.9 | 4.4 | 29 | CCC(=O)N[C@@H](c1ncnn1CC1CC1)[C@@H](C)c1ccc(NC(=O)[C@@H](NC(=O)c2ccnn2C(C)C)C(C2CC2)C2CC2)c(F)c1 [Compound 44, N-((S)-1,1-dicyclopropyl-3-((4-((1R,2S)-1-(1-(cyclopropylmethyl)-1H-1,2,4-triazol-5-yl)-1-propionamidopropan-2-yl)-2-fluorophenyl)amino)-3-oxopropan-2-yl)-1-isopropyl-1H-pyrazole-5-carboxamide]
